Laboratory results published in patent US7223793B2, “Phenolic acid derivatives and composition for preventing or treating blood lipid level-related diseases comprising the same” (Bionutrigen Co., Ltd., priority 2001, dated 2007).

How the values were obtained:
[1] = test system: ACAT; assay: ACAT activity in liver microsomes of treated rabbits (Experimental Example 4); assay type: in vivo, rabbit; conditions: liver microsomes of rabbits fed 8 weeks; for ACAT activity: lovastatin 1 mg/kg or BN30028 0.05 wt %, average ± standard deviation; for ACAT activity inhibition: relative to control group
Method: The rabbits raised as described in step 1 of the Experimental Example 2 were sacrificed by decapitation and the livers were removed from the rabbits. 1 g of the liver tissue taken from each rabbit was homogenized in 5 ml of homogenization medium (0.1 M KH2PO4, pH 7.4, 0.1 mM EDTA and 10 mM β-mercaptoethanol). The homogenate was centrifuged at 3,000×g for 10 minutes at 4° C. and the supernatant thus obtained was centrifuged at 15,000×g for 15 minutes at 4° C. to obtain a supernatant. The resulting supernatant was put into an ultracentrifuge tube (Beckman) and centrifuged at 100,000×g for 1 hour at 4° C. to obtain microsomal pellets, which were then suspended in 3 ml of the homogenization medium and centrifuged at 100,000×g for 1 hour at 4° C. The pellets thus obtained were suspended in 1 ml of the homogenization medium. The protein concentration of the resulting suspension was determined by Lowry's method and then adjusted to the range of 4 to 8 mg/ml. The resulting suspension was stored in a deep freezer (Biofreezer, Forma Scientific Inc.).
6.67 μl, of 1 mg/ml cholesterol solution in acetone was mixed with 6 μl of 10% Triton WR-1339 (Sigma Co.) in acetone. Acetone was removed from the mixture by evaporation under a nitrogen flow. To the resulting mixture, distilled water was added to adjust the concentration of cholesterol to 30 mg/ml.
To 10 μl of the resulting aqueous cholesterol solution, 10 μl of 1 M KH2PO4 (pH 7.4), 5 μl of 0.6 mM bovine serum albumin (BSA), 10 μl of the microsome solution obtained in Step 1 and 55 μl of distilled water (total 90 μl) were added. The mixture was pre-incubated in a water bath at 37° C. for 30 minutes.
10 μl of (1-^14C) oleyl-CoA solution (0.05 μCi, final concentration: 10 μM) was added to the pre-incubated mixture and the resulting mixture was incubated in a water bath at 37° C. for 30 minutes. 500 μl of isopropanol:heptane mixture (4:1 (v/v)), 300 μl of heptane and 200 μl of 0.1 M KH2PO4 (pH 7.4). were added to the mixture. The mixture was mixed vigorously using a vortex mixer and then allowed to stand at room temperature for 2 minutes.
200 μl of the resulting supernatant was put in a scintillation bottle and 4 ml of scintillation fluid (Lumac) was added thereto. The mixture was assayed for radioactivity with 1450 Microbeta liquid scintillation counter (Wallacoy, Finland). ACAT activity was calculated as picomoles of cholesteryl oleate synthesized per minute per mg protein (pmoles/min/mg protein). All the data are expressed by average±standard deviation(p<0.05).

[2] = test system: New Zealand White rabbits; assay: Abnormal fat-containing cells in liver of cholesterol-fed rabbits (Experimental Example 3); assay type: in vivo, rabbit; conditions: 1% cholesterol diet, 8 weeks; for Microscopic observation of liver cells (fatty liver): FIGS. 2a-2c; for Grade of proportion of abnormal fat-containing cells in the liver lobules around the central vein: grades 1+(0-25%), 2+(26-50%), 3+(51-75), 4+(76-100%), lovastatin 1 mg/kg or BN30028 0.05 wt %
Method: Thereafter, a piece of each organ was fixed in 10% neutral formalin for at least 24 hours. The fixed organ piece was washed sufficiently with tap water, dehydrated stepwise with 70%, 80%, 90% and 100% ethanol and, then, embedded in a paraffin by employing SHANDON, Histocentre 2, USA. The embedded organ piece was sectioned in a thickness of 4 μm with a microtome (LEICA, RM2045, Germany) and stained with H & E (hematoxylin and eosin). The stained organ specimen was made transparent with xylene, mounted with permount, and then observed under a microscope.
In order to quantitatively evaluate the effects of feeding a high cholesterol diet with test substances on liver tissues, the liver specimens prepared in step 3 of the Experimental Example 3 were observed under a microscope with referring to the procedure described by Fogt F. et al. (Fogt F. and Nanji A., Toxicology and Applied Pharmacology, 136, 87-93, 1996) and the procedure described by Keegan et al. (Keegan A., et al., Journal of Hepatology 23: 591-600, 1995). The specimens were classified into for grades: 1+(0-25%), 2+(26-50%), 3+(51-75) and 4+(76-100%) according to the proportion of abnormal fat-containing cells in the liver lobules around the central vein. The significant differences between the test groups were tested by student t-test using Microsoft excel (version 7.0) program

[3] = test system: Sprague-Dawley rats; assay: Effect on blood lipid level in rats fed high-cholesterol diet (Experimental Example 1); assay type: in vivo, rat; conditions: rats on 1% cholesterol diet, 5 weeks; for Atherogenic index (AI): (total cholesterol − HDL cholesterol)/HDL cholesterol; for HDL-cholesterol/total cholesterol / HDL-cholesterol / Total cholesterol / Triglyceride: plasma, 0.02% lovastatin or 0.046% BN30028 in diet; for HDL-cholesterol / Total cholesterol / Triglyceride: average ± standard deviation
Excerpt: 30 of 4-week-old male white Sprague-Dawley rats (Bio Genomics Inc., Korea), each weighing about […], were divided into three groups by a randomized block design. The rats of the three groups were fed with three different high-cholesterol diets, i.e., AIN-76 laboratory animal diets (TEKLAD premier Co., Madison, Wis., U.S.A.) containing 1% cholesterol (Control group), 1% cholesterol plus 0.02% lovastatin (Choongwae Pharma. Corp., Korea) and 1% cholesterol plus 0.046% BN30028, respectively, as shown in Table I.
The rats were allowed free access to the specified diets and water for 5 weeks and the ingestion amounts were recorded daily. The rats were weighed every 5 days, and then the record was analyzed.
Blood samples were taken from vena hypogastrica of the rats of the three dietary groups raised in Step 1 and centrifuged to separate plasma. The total cholesterol level was measured by using a diagnosis kit purchased from Sigma (USA), Cat. No.: C0534, applying the method of Allain et al. (Allain et al., Clin. Chem., 20, 470-475 (1974)). The HDL fraction was separated by using a kit purchased from Sigma, Cat. No.: 352-1 applying the heparin-manganese precipitation method (Waenic R. G. and Albers J. J., J Lipid Res., 19, 65-76 (1978)) and the HDL-cholesterol level was measured by using a kit purchased from Sigma, Cat. No.: C9908. The triglyceride level was measured using a kit purchased from Sigma, Cat. No.: 336-10) applying the lipase-glycerol phosphate oxidase method (McGowan, M. W. et al., Clin. Chem., 29, 538-542(1983)). All the data are expressed by average±standard deviation.

Row | SMILES | ACAT activity [1] | ACAT activity inhibition [1] | Microscopic observation of liver cells (fatty liver) [2] | Proportion of fat-modified cells compared to control ([2]; p<0.05) | Grade of proportion of abnormal fat-containing cells in the liver lobules around the central vein [2] | Atherogenic index (AI) [3] | HDL-cholesterol/total cholesterol [3] | HDL-cholesterol [3] | Total cholesterol [3] | Triglyceride [3] | Reduction of total plasma cholesterol level as compared to the control group [3] | Reduction of triglyceride as compared to the control group [3] | Increase of triglyceride as compared to the control group [3]
1 | COC(=O)C(Cc1ccccc1)NC(=O)CCc1ccc(O)c(O)c1 (centres unmarked) [BN30028, 2-[3-(3,4-dihydroxyphenyl)propionylamino]-3-phenyl propionic acid methyl ester] | 93.9 ± 21.5 pmol/minute/mg protein | 26.2% | almost all liver cells of the rabbits administered with BN30028 are of a normal shape | significantly reduced | 3.57 ± 0.35 | 1.84 ± 0.2 | 35.1 ± 0.6% | 25.6 ± 0.6 mg/dL | 72.8 ± 3.7 mg/dL | 47.6 ± 1.6 mg/dL | 12% | 15% | 
2 | CC[C@H](C)C(=O)O[C@H]1C[C@@H](C)C=C2C=C[C@H](C)[C@H](CC[C@@H]3C[C@@H](O)CC(=O)O3)[C@H]21 [Lovastatin, reference compound] | 96.2 ± 21.3 pmol/minute/mg protein | 23.8% | many cells containing excessive fat were observed around the central vein |  | 3.97 ± 0.15 | 2.3 ± 0.2 | 30.2 ± 0.5% | 23.4 ± 0.4 mg/dL | 77.4 ± 1.8 mg/dL | 69.0 ± 4.7 mg/dL | 6% |  | 25%
